Test: pERK AlphaScreen Protocol: KYSE-520 cells (10 k cells/well) were grown in 384-well plate in 20 uL of medium (RPMI-1640, without phenol red, containing 10% FBS) at 37° C. with 5% CO2 overnight. DMSO (control) or increasing concentrations of compounds were diluted in medium, added to the 384-well plate (5 uL/well, final DMSO concentration of 1%), and cells were then incubated with compounds for 2 hr. Phospho-ERK levels were measured using phospho-ERK1/2 AlphaScreen SureFire (PerkinElmer, TGRESB10K) following manufacturer's recommendations. Dose-response curves were analyzed using IC50 regression curve fitting (GeneData Screener). Curves were normalized to a high control without inhibitor (DMSO only), and low control (1 μM selumetinib).
Conditions: KYSE-520, 2 h

| Structure (SMILES) | IC50 [nM] |
| --- | --- |
| COc1ccc(CNc2nccc(C(=O)c3ncc(N4CCC(C)([C@@H](C)N[S+]([O-])C(C)(C)C)CC4)nc3Cl)c2Cl)cc1 (some centres not stated) | 100 |
| CC1(N)CCN(c2cnc3c(-c4cc(N)ccc4Cl)n[nH]c3n2)CC1 | 406 |

From ChEMBL document CHEMBL5726901, “Heterocyclic inhibitors of PTPN11” (2019)
